Measured values from ChEMBL document CHEMBL3822415, “Toward the Validation of Maternal Embryonic Leucine Zipper Kinase: Discovery, Optimization of Highly Potent and Selective Inhibitors, and Preliminary Biology Insight” (J Med Chem, 2016).
Converted amounts (≈) assume the structure as drawn. Blank lines part the entries; values can stand above or below the compound they belong to.

Experiments:
[1] = target: T1, Maternal embryonic leucine zipper kinase (Homo sapiens, UniProt Q14680); assay: Inhibition of MELK catalytic domain (unknown origin) preincubated for 20 mins followed by addition of KinEASE STK S1 peptide as substrate in presence of 2 mM ATP measured after 20 mins by time-resolved fluorescence assay
[2] = target: T1, Maternal embryonic leucine zipper kinase; assay: Inhibition of MELK catalytic domain (unknown origin) preincubated for 20 mins followed by addition of KinEASE STK S1 peptide as substrate in presence of 20 uM ATP measured after 20 mins by time-resolved fluorescence assay
[3] = target: T2, Platelet-derived growth factor receptor alpha (Homo sapiens, UniProt P16234); assay: Inhibition of PDGFR-alpha (unknown origin)
[4] = target: Mitogen-activated protein kinase kinase kinase kinase 4 (Homo sapiens, UniProt O95819); assay: Inhibition of MAP4K4 (unknown origin)
[5] = target: T3, Receptor-type tyrosine-protein kinase FLT3 (Homo sapiens, UniProt P36888); assay: Inhibition of FLT3 (unknown origin)
T3 sequence (P36888 whole entry): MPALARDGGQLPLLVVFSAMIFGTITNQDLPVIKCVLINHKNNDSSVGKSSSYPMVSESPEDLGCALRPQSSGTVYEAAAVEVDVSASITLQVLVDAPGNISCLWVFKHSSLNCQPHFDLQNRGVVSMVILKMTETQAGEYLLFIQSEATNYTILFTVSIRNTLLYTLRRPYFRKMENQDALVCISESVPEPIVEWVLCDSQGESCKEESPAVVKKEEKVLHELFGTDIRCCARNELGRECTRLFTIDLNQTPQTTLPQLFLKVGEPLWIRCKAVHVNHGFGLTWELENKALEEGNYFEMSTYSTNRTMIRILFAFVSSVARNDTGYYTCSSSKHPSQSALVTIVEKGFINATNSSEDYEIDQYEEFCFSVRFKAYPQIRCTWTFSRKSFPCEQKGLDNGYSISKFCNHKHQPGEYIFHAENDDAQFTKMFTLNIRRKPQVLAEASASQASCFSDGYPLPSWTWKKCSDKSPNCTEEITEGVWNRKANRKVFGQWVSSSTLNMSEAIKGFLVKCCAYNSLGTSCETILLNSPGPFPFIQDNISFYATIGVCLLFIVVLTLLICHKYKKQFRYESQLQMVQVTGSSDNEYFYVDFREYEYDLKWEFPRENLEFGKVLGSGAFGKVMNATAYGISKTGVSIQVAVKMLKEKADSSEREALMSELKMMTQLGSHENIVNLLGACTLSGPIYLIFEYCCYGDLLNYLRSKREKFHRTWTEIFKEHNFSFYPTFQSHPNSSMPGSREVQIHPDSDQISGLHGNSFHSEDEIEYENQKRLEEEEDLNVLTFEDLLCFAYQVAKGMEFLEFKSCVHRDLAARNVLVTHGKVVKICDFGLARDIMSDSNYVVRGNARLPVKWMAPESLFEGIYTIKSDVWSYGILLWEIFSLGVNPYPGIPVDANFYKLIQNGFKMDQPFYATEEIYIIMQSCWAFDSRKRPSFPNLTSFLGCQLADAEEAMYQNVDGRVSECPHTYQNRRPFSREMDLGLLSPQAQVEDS

MDA-MB-468 = assay: Antiproliferative activity against MELK-dependent human MDA-MB-468 cells assessed as reduction in cell viability after 7 days by CellTiter-Glo assay; settings: MDA-MB-468, 168 h
MCF7 = assay: Antiproliferative activity against MELK-independent ER-positive human MCF7 cells assessed as reduction in cell viability after 7 days by CellTiter-Glo assay; settings: MCF7, 168 h
[6] = Oral bioavailability in C57BL/6 mouse at 10 mg/kg by LC-MS/MS analysis; format: ADME, organism-based; settings: in vivo
[7] = AUC (0 to 7 hrs) in C57BL/6 mouse at 1 mg/kg, iv by LC-MS/MS analysis; format: ADME, organism-based; parameters: time < 7 hr, dose 1 mg/kg, route intravenous; settings: in vivo
Plasma [8] = assay: Metabolic stability in mouse plasma measured after 4 hrs; format: ADME, cell-free
[9] = Cmax in C57BL/6 mouse at 30 mg/kg, sc by LC-MS/MS analysis; format: ADME, organism-based; parameters: dose 30 mg/kg, route subcutaneous; settings: in vivo
[10] = Clearance in C57BL/6 mouse at 1 mg/kg, iv by LC-MS/MS analysis; format: ADME, organism-based; settings: in vivo
[11] = target: T1, Maternal embryonic leucine zipper kinase; assay: Inhibition of full-length MELK (unknown origin) preincubated for 20 mins followed by addition of KinEASE STK S1 peptide as substrate in presence of 20 uM ATP measured after 20 mins by time-resolved fluorescence assay
[12] = Extraction ratio in mouse microsomes; format: ADME, Microsome
[13] = Apparent permeability across apical to basolateral side in human Caco2 cells; format: ADME, cell-based; settings: Caco-2
[14] = Tmax in C57BL/6 mouse at 30 mg/kg, sc by LC-MS/MS analysis; format: ADME, organism-based; settings: in vivo
[15] = target: T2, Platelet-derived growth factor receptor alpha; assay: Inhibition of partial-length human wild type PDGFR-alpha expressed in mammalian expression system by KINOMEscan assay
[16] = target: Mast/stem cell growth factor receptor Kit (Homo sapiens, UniProt P10721, A829P); assay: Inhibition of partial-length human KIT A829P mutant expressed in mammalian expression system by KINOMEscan assay
[17] = target: Receptor-type tyrosine-protein kinase FLT3 (Homo sapiens, UniProt P36888, ITD); assay: Inhibition of partial-length human FLT3 ITD mutant expressed in bacterial expression system by KINOMEscan assay
Plasma [18] = assay: Drug uptake in plasma of athymic nude mouse at 120 mg/kg, sc bid; format: ADME, organism-based; settings: in vivo
[19] = target: T1, Maternal embryonic leucine zipper kinase; assay: Binding affinity to MELK (unknown origin) expressed in Escherichia coli by SPR analysis
Plasma [20] = assay: Drug uptake in plasma of athymic nude mouse at 120 to 240 mg/kg, sc qd; format: ADME, organism-based; settings: in vivo
[21] = Solubility of the compound at pH 6.8; format: physicochemical; settings: buffer
[22] = Tmax in C57BL/6 mouse at 10 mg/kg, po by LC-MS/MS analysis; format: ADME, organism-based; settings: in vivo
[23] = Cmax in C57BL/6 mouse at 10 mg/kg, po by LC-MS/MS analysis; format: ADME, organism-based; parameters: dose 10 mg/kg, route oral; settings: in vivo
[24] = Volume of distribution at steady state in C57BL/6 mouse at 1 mg/kg, iv by LC-MS/MS analysis; format: ADME, organism-based; settings: in vivo, read-out: Vdss
[25] = target: T4, Serine/threonine-protein kinase haspin (Homo sapiens, UniProt Q8TF76); assay: Inhibition of partial-length human wild type HASPIN expressed in mammalian expression system by KINOMEscan assay
T4 sequence (Q8TF76 whole entry): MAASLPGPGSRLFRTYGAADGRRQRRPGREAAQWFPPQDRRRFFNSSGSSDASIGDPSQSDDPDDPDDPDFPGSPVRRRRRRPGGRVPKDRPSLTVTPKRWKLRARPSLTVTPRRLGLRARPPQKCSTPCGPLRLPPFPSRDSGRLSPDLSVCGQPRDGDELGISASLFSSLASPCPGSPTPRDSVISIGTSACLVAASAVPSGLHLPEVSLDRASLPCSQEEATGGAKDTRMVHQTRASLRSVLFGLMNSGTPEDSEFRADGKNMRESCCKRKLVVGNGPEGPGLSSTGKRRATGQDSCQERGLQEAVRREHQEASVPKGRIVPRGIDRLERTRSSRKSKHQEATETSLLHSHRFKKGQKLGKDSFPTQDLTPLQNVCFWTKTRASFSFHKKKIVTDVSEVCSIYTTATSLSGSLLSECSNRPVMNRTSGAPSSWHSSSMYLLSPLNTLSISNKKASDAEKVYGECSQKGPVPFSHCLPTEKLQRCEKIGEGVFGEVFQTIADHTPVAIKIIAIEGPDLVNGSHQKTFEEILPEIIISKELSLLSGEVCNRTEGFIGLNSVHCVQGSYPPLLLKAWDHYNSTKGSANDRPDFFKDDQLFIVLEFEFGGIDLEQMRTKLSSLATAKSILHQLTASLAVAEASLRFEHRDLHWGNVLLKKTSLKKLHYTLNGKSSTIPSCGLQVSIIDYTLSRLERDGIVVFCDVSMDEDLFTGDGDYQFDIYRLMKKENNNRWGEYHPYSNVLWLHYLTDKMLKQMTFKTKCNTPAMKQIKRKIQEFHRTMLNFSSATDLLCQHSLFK

[26] = AUC (0 to 7 hrs) in C57BL/6 mouse at 10 mg/kg, po by LC-MS/MS analysis; format: ADME, organism-based; parameters: time < 7 hr, dose 10 mg/kg, route oral; settings: in vivo
[27] = AUC (0 to 7 hrs) in C57BL/6 mouse at 30 mg/kg, sc by LC-MS/MS analysis; format: ADME, organism-based; parameters: dose 30 mg/kg, time < 7 hr, route subcutaneous; settings: in vivo
[28] = Half life of the compound; format: physicochemical
[29] = Oral bioavailability in C57BL/6 mouse at 5 mg/kg by LC-MS/MS analysis; format: ADME, organism-based; settings: in vivo
[30] = Cmax in C57BL/6 mouse at 5 mg/kg, po by LC-MS/MS analysis; format: ADME, organism-based; parameters: dose 5 mg/kg, route oral; settings: in vivo
[31] = Tmax in C57BL/6 mouse at 5 mg/kg, po by LC-MS/MS analysis; format: ADME, organism-based; settings: in vivo
[32] = AUC (0 to 7 hrs) in C57BL/6 mouse at 5 mg/kg, po by LC-MS/MS analysis; format: ADME, organism-based; parameters: dose 5 mg/kg, time < 7 hr, route oral; settings: in vivo

T1 sequence (Q14680 whole entry, the tested form may be a part): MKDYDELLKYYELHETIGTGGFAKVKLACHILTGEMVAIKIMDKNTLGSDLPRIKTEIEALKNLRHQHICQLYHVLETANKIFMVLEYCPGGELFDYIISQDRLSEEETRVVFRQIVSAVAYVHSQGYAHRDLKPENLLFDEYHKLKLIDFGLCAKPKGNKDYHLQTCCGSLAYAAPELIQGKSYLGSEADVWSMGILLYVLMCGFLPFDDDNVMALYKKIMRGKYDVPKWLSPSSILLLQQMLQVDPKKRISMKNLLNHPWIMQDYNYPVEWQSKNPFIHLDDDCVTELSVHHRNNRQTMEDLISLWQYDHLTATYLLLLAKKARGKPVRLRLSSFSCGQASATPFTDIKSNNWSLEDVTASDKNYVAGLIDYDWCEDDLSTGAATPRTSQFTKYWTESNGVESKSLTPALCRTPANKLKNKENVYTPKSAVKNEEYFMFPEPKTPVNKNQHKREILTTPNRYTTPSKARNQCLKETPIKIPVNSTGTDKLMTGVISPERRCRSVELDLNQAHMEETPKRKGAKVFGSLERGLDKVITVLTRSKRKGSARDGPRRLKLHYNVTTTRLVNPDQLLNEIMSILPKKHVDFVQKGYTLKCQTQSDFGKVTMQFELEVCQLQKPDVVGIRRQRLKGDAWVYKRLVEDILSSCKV
T2 sequence (P16234 whole entry): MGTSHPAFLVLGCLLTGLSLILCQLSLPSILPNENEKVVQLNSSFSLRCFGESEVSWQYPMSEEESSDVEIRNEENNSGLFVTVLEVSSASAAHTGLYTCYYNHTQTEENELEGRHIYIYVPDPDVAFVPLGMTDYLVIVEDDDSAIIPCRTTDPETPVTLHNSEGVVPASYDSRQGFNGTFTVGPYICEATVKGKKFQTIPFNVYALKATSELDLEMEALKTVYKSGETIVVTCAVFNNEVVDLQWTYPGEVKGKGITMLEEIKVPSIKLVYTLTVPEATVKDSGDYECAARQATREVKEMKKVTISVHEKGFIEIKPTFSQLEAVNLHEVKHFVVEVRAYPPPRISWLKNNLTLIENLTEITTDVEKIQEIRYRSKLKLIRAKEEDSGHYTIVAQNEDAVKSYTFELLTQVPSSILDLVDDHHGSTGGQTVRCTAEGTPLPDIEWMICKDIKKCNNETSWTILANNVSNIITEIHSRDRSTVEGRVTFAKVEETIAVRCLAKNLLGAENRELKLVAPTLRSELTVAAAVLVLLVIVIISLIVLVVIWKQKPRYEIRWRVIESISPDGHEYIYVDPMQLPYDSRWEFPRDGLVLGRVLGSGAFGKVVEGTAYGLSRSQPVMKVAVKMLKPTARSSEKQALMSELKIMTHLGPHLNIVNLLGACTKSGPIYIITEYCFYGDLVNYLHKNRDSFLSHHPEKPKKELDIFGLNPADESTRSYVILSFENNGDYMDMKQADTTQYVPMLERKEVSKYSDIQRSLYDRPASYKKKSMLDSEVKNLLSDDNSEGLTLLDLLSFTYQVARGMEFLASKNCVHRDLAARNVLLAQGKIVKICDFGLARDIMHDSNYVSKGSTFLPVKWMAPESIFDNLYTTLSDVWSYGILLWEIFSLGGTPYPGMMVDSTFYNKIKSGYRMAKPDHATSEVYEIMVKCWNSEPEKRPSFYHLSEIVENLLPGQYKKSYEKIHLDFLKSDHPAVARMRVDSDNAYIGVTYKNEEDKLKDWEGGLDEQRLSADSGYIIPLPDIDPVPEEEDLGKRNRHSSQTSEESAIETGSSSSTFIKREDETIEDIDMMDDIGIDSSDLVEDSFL
Mast/stem cell growth factor receptor Kit, sequence (P10721 26-976 A829P limits assumed): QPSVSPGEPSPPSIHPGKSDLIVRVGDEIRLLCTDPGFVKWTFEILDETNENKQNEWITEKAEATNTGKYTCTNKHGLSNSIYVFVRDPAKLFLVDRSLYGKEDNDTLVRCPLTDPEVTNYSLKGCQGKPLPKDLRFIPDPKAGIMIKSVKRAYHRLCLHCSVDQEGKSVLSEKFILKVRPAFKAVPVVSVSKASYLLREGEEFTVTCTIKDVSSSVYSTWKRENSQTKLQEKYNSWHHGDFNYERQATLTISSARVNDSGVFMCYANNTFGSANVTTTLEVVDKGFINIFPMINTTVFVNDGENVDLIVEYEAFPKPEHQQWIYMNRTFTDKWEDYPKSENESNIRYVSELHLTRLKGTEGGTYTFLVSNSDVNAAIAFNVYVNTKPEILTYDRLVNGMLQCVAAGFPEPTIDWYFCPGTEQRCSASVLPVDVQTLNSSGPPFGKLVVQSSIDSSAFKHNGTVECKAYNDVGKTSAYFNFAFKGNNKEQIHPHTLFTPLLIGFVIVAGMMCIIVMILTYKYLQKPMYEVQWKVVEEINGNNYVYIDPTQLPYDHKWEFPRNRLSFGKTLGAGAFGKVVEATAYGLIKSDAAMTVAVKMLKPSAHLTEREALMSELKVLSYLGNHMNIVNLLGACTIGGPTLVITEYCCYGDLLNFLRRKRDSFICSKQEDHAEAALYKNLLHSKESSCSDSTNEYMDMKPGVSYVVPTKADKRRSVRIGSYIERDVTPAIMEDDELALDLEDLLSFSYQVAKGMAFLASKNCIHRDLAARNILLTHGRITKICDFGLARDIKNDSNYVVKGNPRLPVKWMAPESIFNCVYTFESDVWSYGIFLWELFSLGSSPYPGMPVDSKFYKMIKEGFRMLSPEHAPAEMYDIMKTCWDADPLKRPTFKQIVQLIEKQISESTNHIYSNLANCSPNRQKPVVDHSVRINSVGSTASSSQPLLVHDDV
Mitogen-activated protein kinase kinase kinase kinase 4, sequence (O95819 whole entry): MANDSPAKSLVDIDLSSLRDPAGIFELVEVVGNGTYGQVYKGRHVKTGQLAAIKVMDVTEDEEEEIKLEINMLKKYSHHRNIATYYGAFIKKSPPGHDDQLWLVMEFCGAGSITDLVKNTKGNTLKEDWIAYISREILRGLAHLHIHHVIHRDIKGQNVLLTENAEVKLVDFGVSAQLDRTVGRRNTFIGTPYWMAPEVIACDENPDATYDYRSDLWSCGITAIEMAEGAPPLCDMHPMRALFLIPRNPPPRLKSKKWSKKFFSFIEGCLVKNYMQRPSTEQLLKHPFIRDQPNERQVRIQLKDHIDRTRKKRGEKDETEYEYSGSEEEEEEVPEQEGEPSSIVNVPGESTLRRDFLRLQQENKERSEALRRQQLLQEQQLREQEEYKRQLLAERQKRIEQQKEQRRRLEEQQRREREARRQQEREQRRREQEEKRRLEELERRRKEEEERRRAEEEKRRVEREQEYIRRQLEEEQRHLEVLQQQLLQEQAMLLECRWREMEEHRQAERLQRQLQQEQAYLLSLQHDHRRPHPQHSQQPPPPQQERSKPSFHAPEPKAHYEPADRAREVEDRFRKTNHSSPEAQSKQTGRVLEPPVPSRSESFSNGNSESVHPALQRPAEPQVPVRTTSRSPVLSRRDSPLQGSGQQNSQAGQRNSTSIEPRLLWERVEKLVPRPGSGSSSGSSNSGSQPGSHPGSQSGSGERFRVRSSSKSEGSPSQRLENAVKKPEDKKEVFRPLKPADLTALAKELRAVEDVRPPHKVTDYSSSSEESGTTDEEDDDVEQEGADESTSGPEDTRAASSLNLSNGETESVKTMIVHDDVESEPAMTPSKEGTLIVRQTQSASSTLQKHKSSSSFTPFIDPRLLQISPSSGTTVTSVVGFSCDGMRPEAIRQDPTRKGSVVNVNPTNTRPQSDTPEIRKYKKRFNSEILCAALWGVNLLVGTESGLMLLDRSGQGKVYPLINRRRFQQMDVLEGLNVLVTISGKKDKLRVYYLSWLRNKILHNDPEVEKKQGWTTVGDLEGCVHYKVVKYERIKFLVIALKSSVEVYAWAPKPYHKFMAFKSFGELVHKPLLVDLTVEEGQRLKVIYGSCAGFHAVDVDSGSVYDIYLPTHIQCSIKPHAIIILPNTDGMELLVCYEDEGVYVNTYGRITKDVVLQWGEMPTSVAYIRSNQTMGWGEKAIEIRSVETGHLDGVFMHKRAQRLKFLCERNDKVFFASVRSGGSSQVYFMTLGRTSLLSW

Compound: CS(=O)(=O)c1ccc(-n2cc(-c3ccccc3)cn2)cc1
IC50 [2]: > 20000 nM

Compound: Fc1ccccc1-n1cc(-c2ccncc2OCC2CCNCC2)cn1
IC50 [2]: 13 nM

Compound: O=C(NCc1ccccn1)c1ccc(-n2cc(-c3ccncc3)cn2)cc1
IC50 [3]: < 5000 nM
IC50 [1]: 18800 nM
IC50 [2]: 180 nM
IC50 [4]: < 5000 nM
IC50 [5]: < 5000 nM

Compound: CS(=O)(=O)c1ccc(-n2cc(-c3ccncc3)cn2)cc1
IC50 [2]: 400 nM

Compound: CN1CCN(c2ccc(-n3cc(-c4ccncc4OC[C@H]4CC[C@H](N)CC4)cn3)cc2)CC1
IC50 [1]: 57 nM
IC50 [2]: 1 nM
IC50 (MDA-MB-468): 60 nM
IC50 (MCF7): 1200 nM

Compound: CN1CCN(c2ccc(-n3cc(-c4ccncc4OCC4CCNCC4)cn3)cc2)CC1
bioavailability [6]: 3.6%
AUC(0-t) at 7 h [7]: 0.23 µM·h
Stability (Plasma [8]): Stable
IC50 [1]: 140 nM
IC50 [2]: 2 nM
Cmax [9]: 6560 nM
clearance [10]: 114 mL/min/kg
IC50 [11]: 5 nM
hepatic extraction ratio [12]: 0.75
Papp A→B [13]: 14 ×10⁻⁶ cm/s
Tmax [14]: 24 min
IC50 [15]: 420 nM
IC50 [16]: > 10000 nM
IC50 [17]: 180 nM
Drug uptake (Plasma [18]): Active
IC50 [19]: 2 nM
Drug uptake (Plasma [20]): Active
solubility [21]: 220 µg/mL (≈ 509 µM)
Tmax [22]: 30 min
Cmax [23]: 34 nM
IC50 (MDA-MB-468): 110 nM
Vd [24]: 40.8 L/kg
IC50 [25]: 190 nM
AUC(0-t) at 7 h [26]: 0.0832 µM·h
AUC(0-t) at 7 h [27]: 18.9 µM·h
IC50 (MCF7): 3680 nM
half-life [28]: 1 min

Compound: c1ccc(-n2cc(-c3ccncc3OCC3CCNCC3)cn2)cc1
IC50 [2]: 36 nM
bioavailability [29]: 43%
Cmax [30]: 1030 nM
Tmax [31]: 102 min
AUC(0-t) at 7 h [32]: 3.44 µM·h

Compound: CS(=O)(=O)c1ccc(-n2cc(-c3ccc(O)cc3)cn2)cc1
IC50 [2]: 520 nM

Compound: CN1CCN(c2ccc(-c3cc(-c4ccccc4)n[nH]3)cc2)CC1
IC50 [2]: 670 nM

Compound: Fc1cc(N2CCOCC2)ccc1-n1cc(-c2ccncc2OCC2CCNCC2)cn1
IC50 [2]: 0.3 nM

More lines, now with the values ahead:

IC50 [1]: 260 nM
IC50 [2]: 6 nM
Compound: CN1CCN(c2ccc(-n3cc(-c4ccncc4OC4CCNCC4)cn3)cc2)CC1

IC50 [1]: 210 nM
IC50 [2]: 6 nM
Compound: c1cc(-c2cnn(-c3ccc(N4CCOCC4)cc3)c2)c(OCC2CCNCC2)cn1

IC50 [1]: 5000 nM
IC50 [2]: 80 nM
Compound: CN1CCN(c2ccc(-n3cc(-c4ccncc4)cn3)cc2)CC1

IC50 [2]: 64 nM
Compound: COc1cnccc1-c1cnn(-c2ccc(N3CCN(C)CC3)cc2)c1

IC50 [1]: 150 nM
IC50 [2]: 4 nM
Compound: CN1CCN(c2ccc(-n3cc(-c4ccncc4OC4CCCCC4)cn3)cc2)CC1

IC50 [1]: 410 nM
IC50 [2]: 9 nM
Compound: CC(C)COc1cnccc1-c1cnn(-c2ccc(N3CCN(C)CC3)cc2)c1

IC50 [1]: 1440 nM
IC50 [2]: 25 nM
Compound: CN1CCN(c2ccc(-n3cc(-c4ccncc4OCc4ccncc4)cn3)cc2)CC1

IC50 [1]: 5000 nM
IC50 [2]: 70 nM
Compound: CN1CCN(c2ccc(-n3cc(-c4ccncc4F)cn3)cc2)CC1
